{
  "source": "patent US10294212B2",
  "about": "(CURADEV PHARMA PRIVATE LTD., priority 2013, dated 2019)",
  "system": "CT-26 tumor cells",
  "test": "Combination therapy with Doxorubicin in CT-26 syngeneic tumor model",
  "format": "in vivo, Balb/c mice",
  "details": "vs DOXO or compound alone",
  "description": "Test compounds were evaluated in mice syngeneic tumor models described above for usefulness in combination therapy with a chemotheraputic agent, Doxorubicin (DOXO, Sterling Biotech, India).\nTumor bearing Balb/c mice as described earlier were randomized to receive vehicle alone, test compound alone, DOXO alone, or test compound in combination with DOXO. Animals in DOXO treated arm were injected intraperitoneally on day 1 with DOXO formulated in normal saline (7.5 mg/kg). Five days later, the animals were dosed twice a day orally with either a test compound or vehicle alone during the test period till the end of the experiment. A second smaller dose of DOXO at 3 or 4 mg/Kg was administered to the DOXO-treated animals about 3 weeks after the first DOXO dose. Tumor volume was measured in animals as described above.\nNon-limiting examples follow. Test compound 97 was formulated in 40% PEG, 20% PG, 10% DACM in normal saline. From day 5 after the first DOXO dose was administered till the end of the study period on day 35, the animals were dosed twice a day orally with compound 97 (75 mg/kg). Three weeks later, the DOXO-treated animals were injected i.p. with a second dose of DOXO (3 mg/kg). Tumor volume was monitored as described above. Tumor tissues and final blood samples were harvested from the mice 4 hours after the final test compound dose. […]",
  "data": [
    {"compound": "Nc1oc2c(-c3ccncc3)nccc2c1Nc1ccc(F)c(F)c1", "note": "[Compound 184, N^3-(3,4-difluorophenyl)-7-(pyridin-4-yl)furo[2,3-c]pyridine-2,3-diamine]", "values": [
      {"measurement": "tumor volume, combination with DOXO", "setting": "50 mg/kg oral BID + DOXO", "value": "greater reduction in tumor volume"}
    ]},
    {"compound": "Nc1oc2c(-c3ccncc3)nccc2c1Nc1ccc(F)c(Cl)c1", "note": "[Compound 97, N^3-(3-Chloro-4-fluorophenyl)-7-(pyridin-4-yl)furo[2,3-c]pyridine-2,3-diamine]", "values": [
      {"measurement": "tumor volume, combination with DOXO", "setting": "75 mg/kg oral BID + DOXO 7.5 then 3 mg/kg i.p.", "value": "greater reduction in tumor volume"}
    ]}
  ]
}
